Experiments:
[1] = biological target: rCB2 receptors (Rattus norvegicus (Rat), UniProt Q9QZN9); test: cAMP activation assay rCB2; format: cell-based
Experimental: The compound of Example 3 was tested for agonist activity at the rat CB1 (rCB1) and rCB2 receptors, at eight concentrations, in duplicate: 10, 3, 1, 0.3, 0.1, 0.03, 0.01 and 0.001 μM. Recombinant cells grown to mid-log phase in culture media without antibiotics were detached with PBS containing 5 mM EDTA, centrifuged and resuspended in assay buffer at a concentration of 16.6×10^5 cells/ml. The test was performed in 96 well plates. For testing, 12 μl of cells ([…]) were mixed with 12 μl of agonist at increasing concentrations. […] The plates were then incubated for 30 min at room temperature. After addition of the lysis buffer, cAMP concentrations were estimated, according to the manufacturer specification, with the HTRF kit from Cis-Bio International (Catalogue number 62AM2PEB).

[2] = system: naïve rats; test: Open field chamber testing; format: in vivo, rat; conditions: i.p.: Example 3 15 mg/kg, WIN 55,212-2 7 mg/kg, haloperidol 1 mg/kg
Experimental: The automated open-field chamber (Med Associates ENV-515 Test Environment, St. Albans, Vt.) 43.2×43.2×30.5 cm (L×W×H) equipped with three pairs of 16 infrared arrays that continually monitored the animal's movement was used to determine potential CNS effects of the compound of Example 3, WIN55212-2, and haloperidol in naïve rats. Rats were individually tested 15 min after i.p. drug administration. The infrared beams were set 2.5 cm apart horizontally and at a height of 3 cm above the floor, with the rearing array set at 12 cm from the floor. The area in the box was divided into 4 equal quadrants (zones), with data collected within each quadrant and across quadrants (zone entries). An ambulatory movement was defined as a motion of at least 5 cm and was coded by quadrant. Vertical movements were counted when the rat moved vertically a minimum of 12 cm from the floor. Zone entries were defined as an entry into a zone (from another zone). Entry into a zone was counted when the rat was far enough into the zone to break 2 sets of photoelectric beams for the new zone beams during an ambulatory movement.

[3] = system: paclitaxel-induced neuropathy; test: Prevention of neuropathy induced by paclitaxel; format: in vivo, rat; conditions: paclitaxel model
Experimental: A mixture of saline and CREMOPHOR® ELP 10% was used as vehicle for paclitaxel. It was injected at a concentration of 1.0 mg/kg intraperitoneally to the chemotherapy-treated group of rats on 4 consecutive days for a final cumulative dose of 4 mg/kg to 18 rats.
Paw withdrawal thresholds were determined daily in both hind paws of each animal using calibrated von Frey monofilaments according to an up-down procedure. A series of von Frey filaments with exponentially incremental degrees of stiffness (0.4, 0.7, 1.2, 2.0, 3.6, 5.5, 8.5, and 15.1 g) was used to measure the 50% threshold for both hindpaw withdrawal in awake, unrestrained rats. Chaplan, S. R., Quantitative assessment of tactile allodynia in the rat paw, Journal of Neuroscience Methods, 1994, 53:55-63. Brisk paw withdrawal from the pressure of a filament gently bent against the plantar surface of the paw was defined as a positive response, and absence of withdrawal within 6 sec was considered a negative response. The series of filaments touched the hindpaw in sequential ascending or descending order of stiffness until the threshold of response was crossed (allowing about 10 sec between each increment). Each time the threshold was crossed, the direction of stimulus presentation was reversed and the procedure resumed. Four responses were collected after the first threshold detection, and the 50% withdrawal thresholds was interpolated. In cases in which the response thresholds fall outside the range of detection, 15.1 and 0.25 g were assigned for continuous negative or positive responses, respectively, to the limits of stimulation. FIG. 17 and FIG. 18 show results from these experiments and that peripheral neuropathy started to develop within a few days. FIG. 18 reflects that a plateau was reached by the 10th day.
Group 1 of rats received paclitaxel for four days, as described immediately above in subpart (A) titled “Paclitaxel-induced Neuropathy.” In group 2, a dose of 15 mg/kg of the compound of Example 3, injected intraperitoneally was administered 30 minutes prior to the administration of paclitaxel. In group 3, vehicle of the compound of Example 3 was administered 30 min prior to the administration of paclitaxel. Paw withdrawal thresholds were determined daily in both hind paws of each animal using calibrated von Frey monofilaments according to an up-down procedure as described immediately above in subpart (A) titled “Paclitaxel-induced Neuropathy.” The results are shown in FIG. 17.
FIGS. 19A and 19B show results from an experiment in which three groups of rats were administered 0.25 mL of the compound of Example 3 or the vehicle, a mixture of NMP, propylene glycol, chromophore ELP (25%, 25%, 10%) in sterile water 30 min prior to the administration of paclitaxel. Two of the three experimental groups continued to receive either the vehicle or the compound of Example 3 daily for 11 more days.

For `CCCCCCC(C)(C)c1ccc([C@@H]2C[C@H](O)CC[C@H]2CCCO)c(O)c1` [CP55,940, reference compound], which EC50 [1] is on record?
Its EC50 is 1.13 ± 0.13 nM.

For `Cc1c(C(=O)c2cccc3ccccc23)c2cccc3c2n1[C@H](CN1CCOCC1)CO3` [WIN 55,212-2, reference compound], which “exploratory behavior in the open field (distance traveled, ambulatory time, rearing, zone entries)” value [2] is on record?
Its value is “decreased exploratory behavior”.

For `COc1ccc2[nH]cc(CCNC(C)=O)c2c1` [Melatonin, reference compound], which protection against neuropathy [3] is on record?
The protection against neuropathy was “did not provide any protection”.

Source: US9339486B2, “Heterocyclic modulators of cannabinoid receptors” (THE CLEVELAND CLINIC FOUNDATION, priority 2008, dated 2016)
